Measured values published in patent US7074834B2, “Long acting, reversible veterinary sedative and analgesic and method of use” (University of Kentucky Foundation, priority 2000, dated 2006).

Assays:
Format in all cases: in vivo
horse [1] = experiment: Sedation / head ptosis response in the standing horse after intravenous administration
Experimental: As used herein by “rapid onset” is meant to include the time interval from administration of the active, e.g., guanabenz acetate, until the drug begins to take effect and produce the intended response, e.g., sedation and/or tranquilization and /or analgesia. For the compositions disclosed herein, this time interval typically ranges from between about 1 minute to about 30 minutes. As one of skill in the art can appreciate, the length of time for onset of action can vary, e.g., depending upon the route of administration, the species, age, size, and health status of the animal and the like. In the adult horse, for example, the clinical signs of sedation will begin to appear within 1–3 minutes following a single intravenous administration of about 100 mg of guanabenz or guanabenz acetate.
The term “analgesia” or “analgesic” is meant to include any conscious relief from a painful stimulus in an animal. In general, an analgesic is an agent that alleviates pain or reduces the sensation of pain without causing loss of consciousness. The term “long lasting” is generally meant to include the time interval from the onset of effect of the active until the effect has waned to a subclinical level. Thus, the establishment of this time interval is subjective but is readily ascertainable in the hands of the skilled artisan. Of course the duration of action of the active can vary, e.g., depending upon the route of administration, the species, age, size, and health status of the animal and the like. In the adult horse, for example, the clinical signs of sedation will begin to appear within 1–3 minutes following a single intravenous administration of about 100 mg of guanabenz or guanabenz acetate and the duration of action is up to about 4 hours.
In one embodiment, the present invention provides the surprising discovery that guanabenz acetate, after a single intravenous dose of about 0.2 milligrams per kilogram per horse, produces a rapid onset of sedation and/or, tranquilization and/or analgesia in the standing horse.
The solid circles (● - - - ●) show head ptosis measured as cm above ground level after rapid intravenous administration of guanabenz.

[2] = Blood glucose, urine glucose, urine production and urine specific gravity after intravenous administration; conditions: horse about 1000 lbs, 0.2 mg/kg (100 mg) intravenously
Experimental: Referring now to FIG. 3, a horse (about 1000 lbs) was administered guanabenz at a dose of 0.2 mg/kg (100 mg) intravenously at time point 0. […] The solid circles (● - - - ●) show blood glucose levels after rapid intravenous administration of guanabenz. Note also the increase in urine glucose levels after the administration of guanabenz. The open circles (◯-◯) show the corresponding urinary concentrations of glucose after this administration.
In FIG. 3b, note how the dose of 100 mg of guanabenz yields an increase in urine production as indicated by the increase in volume of urine collected. The solid circles (● - - - ●) show volume of urinary output after rapid intravenous administration of guanabenz. Note also in FIG. 3c, the decrease in specific gravity of the urine after the administration of the guanabenz. The solid circles (● - - - ●) show the corresponding urinary specific gravity values after this administration.

horse [3] = experiment: Heat lamp equine analgesia model; conditions: horse 1000 lbs, 0.2 mg/kg (100 mg) intravenously
Experimental: A horse (1000 lbs) in was administered guanabenz at a dose of 0.2 mg/kg (100 mg) intravenously at time point 0 (see FIG. 2). […] Note also that this response is maintained at full intensity for approximately 30 minutes and declines thereafter, and returns to control values by 6 hrs post administration. The solid circles (● - - - ●) show the increasing control latency in our heat lamp equine analgesia model after administration of guanabenz at indicated zero time.

[4] = standing horse, single intravenous dose of about 0.2 mg/kg

N=C(N)N/N=C/c1c(Cl)cccc1Cl [guanabenz acetate]
duration for which sedation and head ptosis are maintained (horse [1]; [4]): up to four hours
onset of profound sedation and head ptosis (horse [1]; [4]): within one minute

N=C(N)N/N=C/c1c(Cl)cccc1Cl [guanabenz, 1-[2,6-dichlorobenzylidine-amino]-3-guanidine]
blood glucose levels, FIG. 3a [2]: transient increase
specific gravity of the urine, FIG. 3c [2]: decrease
urine glucose levels, FIG. 3a [2]: increase
urine production (volume of urine collected), FIG. 3b [2]: increase
onset of analgesia response (desensitization to the heat lamp), FIG. 2 (horse [3]): very rapid onset
time for which the analgesia response is maintained at full intensity (horse [3]): approximately 30 minutes
time at which the analgesia response returns to control values (horse [3]; post administration): ≤ 6 h
head ptosis response (cm above ground level), FIG. 1 (horse [1]; horse about 1000 lbs, 0.2 mg/kg (100 mg) intravenously): very rapid onset

COC(=O)[C@@H]1[C@H]2C[C@H]3c4[nH]c5ccccc5c4CCN3C[C@@H]2CC[C@@H]1O [yohimbine]
reversal of guanabenz tranquilization and sedation (head ptosis), FIG. 1 (horse [1]; horse given guanabenz 100 mg i.v., yohimbine 60 mg intravenously): rapid reversal
reversal of guanabenz acetate sedation and head ptosis response (horse [1]; horse, guanabenz acetate about 0.2 mg/kg i.v., antagonist given intravenously): rapidly reversible
